Consider 25 compounds from US20240309005A1 (priority 2021, published 2024).

Each structure is given as a SMILES string. Values after ≈ are worked out from the molar mass of the structure shown. A value given as a limit tells only on which side of the number the result lay.

A short description of the data set: physchem. The conditions noted are these: 25 °C, kinetic from dmso stock.

`Cc1n[nH]c2nc(-c3ccc(NS(=O)(=O)c4ccccn4)cc3)nc(NCCN(C)CCO)c12` [Compound 20]: the solubility at 2 h is, setting by setting: (pH 5, fessif) 277 µM (≈ 134 µg/mL); (pH 7.4, aqueous buffer) 82 µM (≈ 39.6 µg/mL).

`Cc1n[nH]c2nc(-c3ccc(NS(=O)(=O)c4cccnc4)cc3)nc(NCCN(C)CCO)c12` [Compound 21, N-[4-[4-([2-[(2-hydroxyethyl)(methyl)amino]ethyl]amino)-3-methyl-1H-pyrazolo[3,4-d]pyrimidin-6-yl]phenyl]pyridine-3-sulfonamide]: the solubility at 2 h by setting is: (pH 5, fessif) 302 µM (≈ 146 µg/mL); (pH 7.4, aqueous buffer) 2.26 µM (≈ 1.09 µg/mL).

For the compound `Cc1n[nH]c2nc(-c3ccc(NS(=O)(=O)c4cc(Cl)ccc4F)cc3)nc(NC3CN(C(C)C)C3)c12` [Compound 25, 5-chloro-2-fluoro-N-(4-(4-((1-isopropylazetidin-3-yl)amino)-3-methyl-1H-pyrazolo[3,4-d]pyrimidin-6-yl)phenyl)benzenesulfonamide], the solubility at 2 h worked out at 301 µM (≈ 160 µg/mL) (pH 5, fessif) and 15.6 µM (≈ 8.27 µg/mL) (pH 7.4, aqueous buffer).

In the case of `CCN1C[C@H](F)[C@H](Oc2nc(-c3ccc(NS(=O)(=O)c4cc(Cl)ccc4F)cc3)nc3[nH]nc(C)c23)C1` [Compound 56, 5-chloro-N-[4-(4-{[(3R,4S)-1-ethyl-4-fluoropyrrolidin-3-yl]oxy}-3-methyl-1H-pyrazolo[3,4-d]pyrimidin-6-yl)phenyl]-2-fluorobenzenesulfonamide], the solubility at 2 h by setting is: (pH 5, fessif) 73.7 µM (≈ 40.5 µg/mL); (pH 7.4, aqueous buffer) 0.48 µM (≈ 0.264 µg/mL).

As to `Cc1n[nH]c2nc(-c3ccc(NS(=O)(=O)c4cc(Cl)ccc4F)cc3)nc(NCCN3CCOCC3)c12` [Compound 26, 5-chloro-2-fluoro-N-(4-(3-methyl-4-((2-morpholinoethyl)amino)-1H-pyrazolo[3,4-d]pyrimidin-6-yl)phenyl)benzenesulfonamide], the solubility at 2 h reads like this: (pH 5, fessif) 285 µM (≈ 156 µg/mL); (pH 7.4, aqueous buffer) 5.1 µM (≈ 2.78 µg/mL).

With `Cc1n[nH]c2nc(-c3ccc(NS(=O)(=O)c4ccc(CN)cc4)cc3)nc(OC3CCN(C(C)C)CC3)c12` [Compound 4, 4-(aminomethyl)-N-(4-(4-((1-isopropylpiperidin-4-yl)oxy)-3-methyl-1H-pyrazolo[3,4-d]pyrimidin-6-yl)phenyl)benzenesulfonamide], the solubility at 2 h reads like this: (pH 5, fessif) 17.6 µM (≈ 9.43 µg/mL); (pH 7.4, aqueous buffer) 293 µM (≈ 157 µg/mL).

Compound `Cc1n[nH]c2nc(-c3ccc(NS(=O)(=O)c4cc(Cl)ccc4F)cc3)nc(O[C@H]3CCNC[C@@H]3F)c12` [Compound 47, 5-chloro-2-fluoro-N-(4-(4-(((3S,4S)-3-fluoropiperidin-4-yl)oxy)-3-methyl-1H-pyrazolo[3,4-d]pyrimidin-6-yl)phenyl)benzenesulfonamide] displayed a solubility at 2 h (pH 5, fessif) of 211 µM (≈ 113 µg/mL) and a solubility at 2 h (pH 7.4, aqueous buffer) of 16.8 µM (≈ 8.99 µg/mL).

As for `Cc1n[nH]c2nc(-c3ccc(NS(=O)(=O)c4cc(Cl)ccc4F)cc3)nc(NCc3ccncc3)c12` [Compound 13, 5-chloro-2-fluoro-N-(4-(3-methyl-4-((pyridin-4-ylmethyl)amino)-1H-pyrazolo[3,4-d]pyrimidin-6-yl)phenyl)benzenesulfonamide], the solubility at 2 h by setting is: (pH 5, fessif) 5.81 µM (≈ 3.04 µg/mL); (pH 7.4, aqueous buffer) less than 0.12 µM.

As to `Cc1n[nH]c2nc(-c3ccc(NS(=O)(=O)N4CCCCC4)cc3)nc(OC3CCN(C(C)C)CC3)c12` [Compound 6, N-(4-(4-((1-isopropylpiperidin-4-yl)oxy)-3-methyl-1H-pyrazolo[3,4-d]pyrimidin-6-yl)phenyl)piperidine-1-sulfonamide], the solubility at 2 h reads like this: (pH 5, fessif) 258 µM (≈ 133 µg/mL); (pH 7.4, aqueous buffer) 299 µM (≈ 154 µg/mL).

As to `Cc1n[nH]c2nc(-c3ccc(NS(=O)(=O)c4cc(Cl)ccc4F)cc3)nc(OCCN(C)C)c12` [Compound 8, 5-chloro-N-(4-(4-(2-(dimethylamino)ethoxy)-3-methyl-1H-pyrazolo[3,4-d]pyrimidin-6-yl)phenyl)-2-fluorobenzenesulfonamide], the solubility at 2 h came to 91 µM (≈ 46 µg/mL) (pH 5, fessif) and 0.23 µM (≈ 0.116 µg/mL) (pH 7.4, aqueous buffer).

With `Cc1n[nH]c2nc(-c3ccc(NS(=O)(=O)c4cc(Cl)ccc4F)cc3)nc(O[C@@H]3CCNC[C@H]3F)c12` [Compound 53, 5-chloro-2-fluoro-N-[4-(4-{[(3R,4R)-3-fluoropiperidin-4-yl]oxy}-3-methyl-1H-pyrazolo[3,4-d]pyrimidin-6-yl)phenyl]benzenesulfonamide], the solubility at 2 h runs as follows: (pH 5, fessif) 283 µM (≈ 151 µg/mL); (pH 7.4, aqueous buffer) 11.3 µM (≈ 6.05 µg/mL).

On to `[2H]C([2H])([2H])N1CC[C@@H](Oc2nc(-c3ccc(NS(=O)(=O)c4cc(Cl)ccc4F)cc3)nc3[nH]nc(C)c23)[C@@H](F)C1` [Compound 65, 5-chloro-2-fluoro-N-(4-(4-(((3S,4R)-3-fluoro-1-(methyl-d3)piperidin-4-yl)oxy)-3-methyl-1H-pyrazolo[3,4-d]pyrimidin-6-yl)phenyl)benzenesulfonamide], for which the concentration in solution (pH 5, fessif) (solubility at 2 h) came to 210 µM (≈ 116 µg/mL) and the solubility at 2 h (pH 7.4, aqueous buffer) worked out at 0.73 µM (≈ 0.403 µg/mL).

As to `Cc1n[nH]c2nc(-c3ccc(NS(=O)(=O)c4cc(Cl)ccc4F)cc3)nc(O[C@H]3CCNC[C@H]3F)c12` [Compound 46, 5-chloro-2-fluoro-N-(4-(4-(((3R,4S)-3-fluoropiperidin-4-yl)oxy)-3-methyl-1H-pyrazolo[3,4-d]pyrimidin-6-yl)phenyl)benzenesulfonamide], the concentration in solution (pH 5, fessif) (solubility at 2 h) was 174 µM (≈ 93.1 µg/mL) and the solubility at 2 h (pH 7.4, aqueous buffer) turned out to be 0.7 µM (≈ 0.374 µg/mL).

For the compound `COc1ccnc(S(=O)(=O)Nc2ccc(-c3nc(O[C@@H]4CCN(C)C[C@@H]4F)c4c(C)n[nH]c4n3)cc2)c1` [Compound 62, N-[4-(4-{[(3S,4R)-3-fluoro-1-methylpiperidin-4-yl]oxy}-3-methyl-1H-pyrazolo[3,4-d]pyrimidin-6-yl)phenyl]-4-methoxypyridine-2-sulfonamide], the solubility at 2 h (pH 5, fessif) was determined as 16.2 µM (≈ 8.55 µg/mL) and the solubility at 2 h (pH 7.4, aqueous buffer) amounted to 0.36 µM (≈ 0.19 µg/mL).

`Cc1n[nH]c2nc(-c3ccc(NS(=O)(=O)c4cc(Cl)ccc4F)cc3)nc(O[C@@H]3CN(C)C[C@@H]3F)c12` [Compound 58, 5-chloro-2-fluoro-N-[4-(4-{[(3R,4S)-4-fluoro-1-methylpyrrolidin-3-yl]oxy}-3-methyl-1H-pyrazolo[3,4-d]pyrimidin-6-yl)phenyl]benzenesulfonamide]: the solubility at 2 h is 262 µM (≈ 140 µg/mL) (pH 5, fessif) and 0.92 µM (≈ 0.492 µg/mL) (pH 7.4, aqueous buffer).

As for `Cc1n[nH]c2nc(-c3cnc(NS(=O)(=O)c4cc(Cl)ccc4F)nc3)nc(OC3CCN(C(C)C)CC3)c12` [Compound 12, 5-chloro-2-fluoro-N-(5-(4-((1-isopropylpiperidin-4-yl)oxy)-3-methyl-1H-pyrazolo[3,4-d]pyrimidin-6-yl)pyrimidin-2-yl) benzenesulfonamide], the solubility at 2 h is, setting by setting: (pH 5, fessif) 33 µM (≈ 18.5 µg/mL); (pH 7.4, aqueous buffer) 2.5 µM (≈ 1.4 µg/mL).

Compound `Cc1n[nH]c2nc(-c3ccc(NS(=O)(=O)c4cc(Cl)ccc4F)cc3)nc(OC3CCNCC3)c12` [Compound 55, 5-chloro-2-fluoro-N-{4-[3-methyl-4-(piperidin-4-yloxy)-1H-pyrazolo[3,4-d]pyrimidin-6-yl]phenyl}benzenesulfonamide] displayed a solubility at 2 h (pH 5, fessif) of 244 µM (≈ 126 µg/mL) and a solubility at 2 h (pH 7.4, aqueous buffer) of 1.37 µM (≈ 0.708 µg/mL).

For the compound `Cc1n[nH]c2nc(-c3ccc(NS(=O)(=O)c4cc(Cl)ccc4F)cc3)nc(O[C@@H]3CNCC3(F)F)c12` [Compound 49, 5-chloro-N-(4-{4-[(4,4-difluoropyrrolidin-3-yl)oxy]-3-methyl-1H-pyrazolo[3,4-d]pyrimidin-6-yl}phenyl)-2-fluorobenzenesulfonamide], the solubility at 2 h is 265 µM (≈ 143 µg/mL) (pH 5, fessif) and 0.27 µM (≈ 0.146 µg/mL) (pH 7.4, aqueous buffer).

For `Cc1n[nH]c2nc(-c3ccc(NS(=O)(=O)C(C)C)cc3)nc(OC3CCN(C(C)C)CC3)c12` [Compound 5, N-(4-(4-((1-isopropylpiperidin-4-yl)oxy)-3-methyl-1H-pyrazolo[3,4-d]pyrimidin-6-yl)phenyl)propane-2-sulfonamide], the solubility at 2 h runs as follows: (pH 5, fessif) 315 µM (≈ 149 µg/mL); (pH 7.4, aqueous buffer) 40 µM (≈ 18.9 µg/mL).

For `Cc1n[nH]c2nc(-c3ccc(NS(=O)(=O)c4cc(Cl)ccc4F)cc3)nc(O[C@H]3CCNC3)c12` [Compound 48, 5-chloro-2-fluoro-N-(4-{3-methyl-4-[(3S)-pyrrolidin-3-yloxy]-1H-pyrazolo[3,4-d]pyrimidin-6-yl}phenyl)benzenesulfonamide], the solubility at 2 h is, setting by setting: (pH 5, fessif) 178 µM (≈ 89.5 µg/mL); (pH 7.4, aqueous buffer) 63.6 µM (≈ 32 µg/mL).

Consider `Cc1n[nH]c2nc(-c3ccc(NS(=O)(=O)c4ccc(C#N)cc4)cc3)nc(OC3CCN(C(C)C)CC3)c12` [Compound 3, 4-cyano-N-(4-(4-((1-isopropylpiperidin-4-yl)oxy)-3-methyl-1H-pyrazolo[3,4-d]pyrimidin-6-yl)phenyl)benzenesulfonamide], for which the solubility at 2 h was determined as 325 µM (≈ 173 µg/mL) (pH 5, fessif) and 19 µM (≈ 10.1 µg/mL) (pH 7.4, aqueous buffer).

As to `Cc1n[nH]c2nc(-c3ccc(NS(=O)(=O)c4cc(F)ccc4F)cc3)nc(NCCN3CCCC3)c12` [Compound 33, 2,5-difluoro-N-(4-(3-methyl-4-((2-(pyrrolidin-1-yl)ethyl)amino)-1H-pyrazolo[3,4-d]pyrimidin-6-yl)phenyl)benzenesulfonamide], the solubility at 2 h worked out at 298 µM (≈ 153 µg/mL) (pH 5, fessif) and 3.8 µM (≈ 1.95 µg/mL) (pH 7.4, aqueous buffer).

Turning to `Cc1n[nH]c2nc(-c3ccc(NS(=O)(=O)c4cc(Cl)ccc4F)cc3)nc(O[C@@H]3CCN(CC(F)F)C[C@@H]3F)c12` [Compound 64, 5-chloro-N-[4-(4-{[(3S,4R)-1-(2,2-difluoroethyl)-3-fluoropiperidin-4-yl]oxy}-3-methyl-1H-pyrazolo[3,4-d]pyrimidin-6-yl)phenyl]-2-fluorobenzenesulfonamide], the solubility at 2 h is, setting by setting: (pH 5, fessif) 6.43 µM (≈ 3.85 µg/mL); (pH 7.4, aqueous buffer) less than 0.24 µM.

`Cc1n[nH]c2nc(-c3ccc(NS(=O)(=O)c4ccccn4)cc3)nc(O[C@@H]3CCN(C)C[C@@H]3F)c12` [Compound 66, N-[4-(4-{[(3S,4R)-3-fluoro-1-methylpiperidin-4-yl]oxy}-3-methyl-1H-pyrazolo[3,4-d]pyrimidin-6-yl)phenyl]pyridine-2-sulfonamide]: the solubility at 2 h (pH 5, fessif) amounted to 32.9 µM (≈ 16.4 µg/mL) and the solubility at 2 h (pH 7.4, aqueous buffer) is 1.51 µM (≈ 0.751 µg/mL).

In the case of `Cc1n[nH]c2nc(-c3ccc(NS(=O)(=O)c4cc(Cl)ccc4F)cc3)nc(OC3CN(C(C)C)C3)c12` [Compound 17, 5-chloro-2-fluoro-N-(4-[4-[(1-isopropylazetidin-3-yl)oxy]-3-methyl-1H-pyrazolo[3,4-d]pyrimidin-6-yl]phenyl)benzenesulfonamide], the solubility at 2 h (pH 5, fessif) worked out at 202 µM (≈ 107 µg/mL) and the solubility at 2 h (pH 7.4, aqueous buffer) came to 1.12 µM (≈ 0.595 µg/mL).
